Read-outs that look alike come from different tables or passages of the source.
Test system: HCT116 MTAP-deleted cell lines
Test: Cell viability assay (CellTiter-Glo, 7 days), HCT116 MTAP-deleted
Assay type: cell-based
Conditions: Homo sapiens, HCT-116
In short: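 CC50 values come from 7-day CellTiter-Glo viability measurements on cells exposed to a dose range of PRMT5 inhibitors dispensed from DMSO stocks.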

[1] = cell viability, HCT116 MTAP-deleted, class symbols, read-out: CC50

Row | SMILES | CC50 [1] [nM] | CC50 [nM]
1 | CN1CCN(C(=O)c2cc3c(cc2F)nc(N)c2cncn23)C(c2ccc(C(F)(F)F)cn2)C1 (centres unmarked) [Ff-136, (4-amino-7-fluoroimidazo[1,5-a]quinoxalin-8-yl)(4-methyl-2-(5-(trifluoromethyl)pyridin-2-yl)piperazin-1-yl)methanone] | 100 to 1000 | –
2 | Cc1ncn2c1c(N)nc1cc(F)c(C(=O)N3CCOC[C@@H]3c3ccc(C(F)(F)F)cc3)cc12 [Ff-137] | < 100 | –
3 | Nc1nc2cc(F)c(C(=O)N3CCCC[C@@H]3c3ccc(C(F)(F)F)cc3)cc2n2cncc12 [Ff-139, (R)-(4-amino-7-fluoroimidazo[1,5-a]quinoxalin-8-yl)(2-(4-(trifluoromethyl)phenyl)piperidin-1-yl)methanone] | < 100 | –
4 | Nc1nc2cc(F)c(C(=O)N3CCN(C4COC4)CC3c3ccc(C(F)(F)F)cn3)cc2n2cncc12 (centres unmarked) [Ff-140, (4-amino-7-fluoroimidazo[1,5-a]quinoxalin-8-yl)(4-(oxetan-3-yl)-2-(5-(trifluoromethyl)pyridin-2-yl)piperazin-1-yl)methanone] | 100 to 1000 | –
5 | Nc1nc2cc(F)c(C(=O)N3CCCCC3c3ccc(C(F)(F)F)cc3F)cc2n2cncc12 (centres unmarked) [Ff-141, (4-amino-7-fluoroimidazo[1,5-a]quinoxalin-8-yl)(2-(2-fluoro-4-(trifluoromethyl)phenyl)piperidin-1-yl)methanone] | < 100 | –
6 | C[C@@H]1COC[C@H](c2ccc(C(F)(F)F)cn2)N1C(=O)c1cc2c(cn1)nc(N)c1cncn12 [Ff-142, (4-aminoimidazo[1,5-a]pyrido[3,4-e]pyrazin-8-yl)((3R,5S)-3-methyl-5-(5-(trifluoromethyl)pyridin-2-yl)morpholino)methanone] | < 100 | –
7 | COc1cc(C(F)(F)F)ccc1C1CCCCN1C(=O)c1cc2c(cc1F)nc(N)c1cncn12 (centres unmarked) [Ff-143, (4-amino-7-fluoroimidazo[1,5-a]quinoxalin-8-yl)(2-(2-methoxy-4-(trifluoromethyl)phenyl)piperidin-1-yl)methanone] | 100 to 1000 | –
8 | CN(C(=O)c1cc2c(cc1F)nc(N)c1cncn12)[C@@H]1COc2cc(-c3cnn(C4COC4)c3)ccc21 [Ff-145, (S)-4-amino-7-fluoro-N-methyl-N-(6-(1-(oxetan-3-yl)-1H-pyrazol-4-yl)-2,3-dihydrobenzofuran-3-yl)imidazo[1,5-a]quinoxaline-8-carboxamide] | < 100 | –
9 | CC(C)N(Cc1ccc(-c2cnn(-c3ccccn3)c2)cc1F)C(=O)c1cc2c(cc1F)nc(N)c1cncn12 [Ff-147, 4-amino-7-fluoro-N-(2-fluoro-4-(1-(pyridin-2-yl)-1H-pyrazol-4-yl)benzyl)-N-isopropylimidazo[1,5-a]quinoxaline-8-carboxamide] | < 100 | –
10 | CC(C)N(Cc1ccc(-c2cnn(-c3cccnc3)c2)cc1F)C(=O)c1cc2c(cc1F)nc(N)c1cncn12 [Ff-148, 4-amino-7-fluoro-N-(2-fluoro-4-(1-(pyridin-3-yl)-1H-pyrazol-4-yl)benzyl)-N-isopropylimidazo[1,5-a]quinoxaline-8-carboxamide] | < 100 | –
11 | Nc1nc2cc(F)c(C(=O)N3CC4(CCC3c3ccc(C(F)(F)F)cn3)CC4)cc2n2cncc12 (centres unmarked) [Ff-149, (4-amino-7-fluoroimidazo[1,5-a]quinoxalin-8-yl)(6-(5-(trifluoromethyl)pyridin-2-yl)-5-azaspiro[2.5]octan-5-yl)methanone] | – | < 100
12 | CN(C(=O)c1cc2c(cc1F)nc(N)c1cncn12)[C@@H]1COc2cc(-c3cnn4c3COCC4)ccc21 [Ff-150, (S)-4-amino-N-(6-(6,7-dihydro-4H-pyrazolo[5,1-c][1,4]oxazin-3-yl)-2,3-dihydrobenzofuran-3-yl)-7-fluoro-N-methylimidazo[1,5-a]quinoxaline-8-carboxamide] | < 100 | –
13 | C[C@H](c1ccc(C(F)(F)F)cn1)N(C(=O)c1cc2c(cc1F)nc(N)c1cncn12)C1CC1 [Ff-153, (R)-4-amino-N-cyclopropyl-7-fluoro-N-(1-(5-(trifluoromethyl)pyridin-2-yl)ethyl)imidazo[1,5-a]quinoxaline-8-carboxamide] | < 100 | –
14 | CN(C(=O)c1cc2c(cc1F)nc(N)c1cncn12)C1COc2c1ccc1c2OC(F)(F)O1 (centres unmarked) [Ff-156, 4-amino-N-(2,2-difluoro-6,7-dihydro-[1,3]dioxolo[4,5-g]benzofuran-6-yl)-7-fluoro-N-methylimidazo[1,5-a]quinoxaline-8-carboxamide] | 100 to 1000 | –
15 | CN(C(=O)c1cc2c(cc1F)nc(N)c1cncn12)C1COc2c1ccc(C(F)(F)F)c2Cl (centres unmarked) [Ff-158, 4-amino-N-(7-chloro-6-(trifluoromethyl)-2,3-dihydrobenzofuran-3-yl)-7-fluoro-N-methylimidazo[1,5-a]quinoxaline-8-carboxamide] | < 100 | –
16 | Nc1nc2cc(F)c(C(=O)N3CCO[C@@H]4Cc5c(ccc(Br)c5F)[C@@H]43)cc2n2cncc12 [Ff-159, (4-amino-7-fluoroimidazo[1,5-a]quinoxalin-8-yl)((4aS,9aR)-7-bromo-8-fluoro-2,3,9,9a-tetrahydroindeno[2,1-b][1,4]oxazin-4(4aH)-yl)methanone] | < 100 | –
17 | Nc1nc2cc(F)c(C(=O)N3CCO[C@@H]4Cc5cc(Br)c(F)cc5[C@@H]43)cc2n2cncc12 [Ff-160, (4-amino-7-fluoroimidazo[1,5-a]quinoxalin-8-yl)((4aS,9aR)-7-bromo-6-fluoro-2,3,9,9a-tetrahydroindeno[2,1-b][1,4]oxazin-4(4aH)-yl)methanone] | < 100 | –
18 | Nc1nc2cc(F)c(C(=O)N3CCO[C@@H]4Cc5c(cc(F)c(Br)c5F)[C@@H]43)cc2n2cncc12 [Ff-161, (4-amino-7-fluoroimidazo[1,5-a]quinoxalin-8-yl)((4aS,9aR)-7-bromo-6,8-difluoro-2,3,9,9a-tetrahydroindeno[2,1-b][1,4]oxazin-4(4aH)-yl)methanone] | 100 to 1000 | –
19 | Nc1nc2cnc(C(=O)N3CCO[C@@H]4Cc5c(cc(F)c(Br)c5F)[C@@H]43)cc2n2cncc12 [Ff-162, (4-aminoimidazo[1,5-a]pyrido[3,4-e]pyrazin-8-yl)((4aS,9aR)-7-bromo-6,8-difluoro-2,3,9,9a-tetrahydroindeno[2,1-b][1,4]oxazin-4(4aH)-yl)methanone] | 100 to 1000 | –
20 | CN(C(=O)c1cc2c(cc1F)nc(N)c1cncn12)[C@@H]1CCc2cc(C(F)F)ccc21 [Ff-166, (R)-4-amino-N-(5-(difluoromethyl)-2,3-dihydro-1H-inden-1-yl)-7-fluoro-N-methylimidazo[1,5-a]quinoxaline-8-carboxamide] | < 100 | –
21 | Nc1nc2cc(F)c(C(=O)N3CCO[C@@H]4Cc5cc(C(F)F)c(F)cc5[C@@H]43)cc2n2cncc12 [Ff-168, (4-amino-7-fluoroimidazo[1,5-a]quinoxalin-8-yl)((4aS,9aR)-7-(difluoromethyl)-6-fluoro-2,3,9,9a-tetrahydroindeno[2,1-b][1,4]oxazin-4(4aH)-yl)methanone] | < 100 | –
22 | Nc1nc2cc(F)c(C(=O)N3CCO[C@@H]4Cc5c(ccc(C(F)F)c5F)[C@@H]43)cc2n2cncc12 [Ff-169, (4-amino-7-fluoroimidazo[1,5-a]quinoxalin-8-yl)((4aS,9aR)-7-(difluoromethyl)-8-fluoro-2,3,9,9a-tetrahydroindeno[2,1-b][1,4]oxazin-4(4aH)-yl)methanone] | < 100 | –
23 | C[C@@H]1CN(C(=O)c2cc3c(cc2F)nc(N)c2cncn23)[C@H]2c3ccc(C(F)F)c(F)c3C[C@H]2O1 [Ff-170, (4-amino-7-fluoroimidazo[1,5-a]quinoxalin-8-yl)((2R,4aS,9aR)-7-(difluoromethyl)-8-fluoro-2-methyl-2,3,9,9a-tetrahydroindeno[2,1-b][1,4]oxazin-4(4aH)-yl)methanone] | < 100 | –
24 | C[C@H]1CN(C(=O)c2cc3c(cc2F)nc(N)c2cncn23)[C@H]2c3cc(F)c(OC(F)F)cc3C[C@H]2O1 [Ff-175, (4-amino-7-fluoroimidazo[1,5-a]quinoxalin-8-yl)((2S,4aS,9aR)-7-(difluoromethoxy)-6-fluoro-2-methyl-2,3,9,9a-tetrahydroindeno[2,1-b][1,4]oxazin-4(4aH)-yl)methanone] | < 100 | –
25 | Nc1nc2cc(F)c(C(=O)N3CCO[C@@H]4Cc5cc(OC(F)(F)F)c(F)cc5[C@@H]43)cc2n2cncc12 [Ff-176, (4-amino-7-fluoroimidazo[1,5-a]quinoxalin-8-yl)((4aS,9aR)-6-fluoro-7-(trifluoromethoxy)-2,3,9,9a-tetrahydroindeno[2,1-b][1,4]oxazin-4(4aH)-yl)methanone] | < 100 | –
26 | Nc1nc2ccc(C(=O)N3CCO[C@@H]4Cc5cc(OC(F)(F)F)c(F)cc5[C@@H]43)cc2n2cncc12 [Ff-177, (4-aminoimidazo[1,5-a]quinoxalin-8-yl)((4aS,9aR)-6-fluoro-7-(trifluoromethoxy)-2,3,9,9a-tetrahydroindeno[2,1-b][1,4]oxazin-4(4aH)-yl)methanone] | < 100 | –
27 | Nc1nc2cnc(C(=O)N3CCO[C@@H]4Cc5cc(OC(F)(F)F)c(F)cc5[C@@H]43)cc2n2cncc12 [Ff-178, (4-aminoimidazo[1,5-a]pyrido[3,4-e]pyrazin-8-yl)((4aS,9aR)-6-fluoro-7-(trifluoromethoxy)-2,3,9,9a-tetrahydroindeno[2,1-b][1,4]oxazin-4(4aH)-yl)methanone] | < 100 | –
28 | Cc1ncc2c(N)nc3cnc(C(=O)N4CCO[C@@H]5Cc6cc(OC(F)(F)F)c(F)cc6[C@@H]54)cc3n12 [Ff-179, (4-amino-1-methylimidazo[1,5-a]pyrido[3,4-e]pyrazin-8-yl)((4aS,9aR)-6-fluoro-7-(trifluoromethoxy)-2,3,9,9a-tetrahydroindeno[2,1-b][1,4]oxazin-4(4aH)-yl)methanone] | < 100 | –
29 | Cc1ncn2c1c(N)nc1cnc(C(=O)N3CCO[C@@H]4Cc5cc(OC(F)(F)F)c(F)cc5[C@@H]43)cc12 [Ff-180, (4-amino-3-methylimidazo[1,5-a]pyrido[3,4-e]pyrazin-8-yl)((4aS,9aR)-6-fluoro-7-(trifluoromethoxy)-2,3,9,9a-tetrahydroindeno[2,1-b][1,4]oxazin-4(4aH)-yl)methanone] | < 100 | –

— patent US12448388B2, “PRMT5 inhibitors and uses thereof” (Gilead Sciences, Inc., priority 2023, dated 2025)
